Reference: US11584758B2, “RIP1K inhibitors” (Rigel Pharmaceuticals, Inc., priority 2020, dated 2023)

Key:
[1] = Brain free fraction in vitro; assay type: in vitro ADME; settings: rodent brain in vitro
Text: (§1) Certain embodiments of the invention provide for compound, compounds or compositions thereof to traverse the blood-brain barrier. […] Brain penetration may be assessed by evaluating brain/plasma ratio (B/P) as measured through in vivo pharmacokinetic studies in rodents and determining free fraction in rodent brain in vitro. […] Without being limited to theory, it is believed that compounds with higher brain/plasma partition ratios may be more pharmacologically active against neurological disorders. Other methods for assessing brain penetration are known to persons of ordinary skill in the art. See, for example, Liu, X. et al., J. Pharmacol. Exp. Therap., 325:349-56, 2008. […]. In this method, the passive membrane permeability (Papp) and the P-gp (P-glycoprotein) substrate efflux potential are determined using a MDCKII-MDR1 cell line as an in vitro model of the effective permeability of a compound through the BBB.
Brain free fraction is a predictive marker for assessing potential for potential therapeutics in the CNS. See, Read K. D.; Braggio S. Assessing brain free fraction in early drug discovery. Expert. Opin. Drug. Metab. Toxicol. 2010, 6, 337-344.
Determination of brain free fraction is known such that those of skill in the art could determine the brain free fraction for additional compounds disclosed herein. See, Srinivas, Nithya et al. “Clinical Pharmacokinetics and Pharmacodynamics of Drugs in the Central Nervous System.” Clinical pharmacokinetics vol. 57, 9 (2018): 1059-1074. doi:10.1007/s40262-018-0632-y.

[2] = Brain/plasma ratio from in vivo pharmacokinetic studies; settings: rodent, brain and plasma; in vivo pharmacokinetic studies in rodents; read-out: B/P ratio (brain/plasma ratio)
Text: as §1

[3] = molecular target: RIPK1 (Homo sapiens (Human), UniProt Q13546); assay: RIPK1 ADP-Glo kinase biochemical assay; settings: statement in words
Sequence of RIPK1 (Q13546 whole entry, species assumed): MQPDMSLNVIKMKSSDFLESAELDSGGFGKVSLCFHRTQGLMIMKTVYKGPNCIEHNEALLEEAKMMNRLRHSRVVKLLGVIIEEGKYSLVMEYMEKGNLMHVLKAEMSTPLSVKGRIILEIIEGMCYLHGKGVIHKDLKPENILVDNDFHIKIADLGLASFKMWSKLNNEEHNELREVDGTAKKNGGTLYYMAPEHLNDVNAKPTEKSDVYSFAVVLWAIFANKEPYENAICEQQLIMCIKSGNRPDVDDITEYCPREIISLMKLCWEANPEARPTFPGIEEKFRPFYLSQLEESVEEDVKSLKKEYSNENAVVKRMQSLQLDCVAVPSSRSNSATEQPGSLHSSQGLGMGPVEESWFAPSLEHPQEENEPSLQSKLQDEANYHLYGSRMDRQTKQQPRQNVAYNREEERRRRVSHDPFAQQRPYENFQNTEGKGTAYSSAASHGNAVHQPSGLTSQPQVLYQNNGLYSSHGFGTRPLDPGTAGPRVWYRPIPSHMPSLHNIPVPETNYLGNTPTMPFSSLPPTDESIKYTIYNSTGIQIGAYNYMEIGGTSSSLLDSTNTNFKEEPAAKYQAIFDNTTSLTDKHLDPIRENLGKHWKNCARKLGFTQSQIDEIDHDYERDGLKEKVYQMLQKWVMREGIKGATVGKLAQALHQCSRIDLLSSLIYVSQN
Protocol: In this example, compounds of the disclosure were evaluated using a biochemical assay using the ADP-Glo™ technology.
ADP-Glo™ (Promega, Madison, Wis., USA) reagents were thawed at ambient temperature. Kinase Detection Reagent was prepared by mixing kinase detection buffer with the lyophilized kinase detection substrate.
A 3 ml 2× working stock volume of Reaction Kinase Buffer was made containing a final concentration of 100 μM DTT and 4 mM MnCl2.
Components of RIPK1 enzyme (Rigel Pharmaceuticals, South San Francisco, Calif., USA) were thawed on ice. Diluted RIPK1 was prepared in 1× Kinase Reaction Buffer (diluted from 2× buffer) to 31 ng/well.
1.0 ul of diluted compound was added to a 384 well plate in duplicate. […] The final reaction volume was 5.0 μl.
The plate was quickly centrifuged and the reaction was incubated at 30° C. for 30 minutes. Adding 5 μl of ADP-Glo™ terminated the reaction. The plate was quickly centrifuged and the reaction was incubated at room temperature for 40 minutes. Kinase Detection Reagent was then added and incubated at room temperature for 30 minutes. The relative light unit (RLU) of kinase reaction was determined by luminescent (Luminescence 0.1s) using a Wallac Victor2 Luminometer (PerkinElmer, Waltham, Mass., USA).

`CN1C(=O)[C@@H](NC(=O)c2cc(Oc3ccccc3)ccn2)CCc2ccc(C#CC(C)(O)C(F)(F)F)nc21` (stereo partly drawn) [Compound I-56, N-((7S)-9-Methyl-8-oxo-2-(4,4,4-trifluoro-3-hydroxy-3-methylbut-1-yn-1-yl)-6,7,8,9-tetrahydro-5H-pyrido[2,3-b]azepin-7-yl)-4-phenoxypicolinamide] gave a fraction unbound [1] of 0.0093.

With `CN1C(=O)[C@@H](NC(=O)c2cc(Oc3ccccc3)ccn2)COc2ccc(C#CC3COC3)nc21` [Compound I-44, (S)—N-(5-methyl-7-(oxetan-3-ylethynyl)-4-oxo-2,3,4,5-tetrahydropyrido[3,2-b][1,4]oxazepin-3-yl)-4-phenoxypicolinamide] the Kp [2] was 1.6 and the fraction unbound [1] was 0.017.

Work on `CN1C(=O)[C@@H](NC(=O)c2cc(Oc3ccccc3)ccn2)CCc2ccc(C#CC3COC3)nc21` [Compound I-58, (S)—N-(9-Methyl-2-(oxetan-3-ylethynyl)-8-oxo-6,7,8,9-tetrahydro-5H-pyrido[2,3-b]azepin-7-yl)-4-phenoxypicolinamide] yielded a Kp [2] of 0.44 and a fraction unbound [1] of 0.0184.

With `CN1C(=O)[C@@H](NC(=O)c2cc(Oc3ccccc3)ccn2)COc2cc(Br)cnc21` [Compound I-6, (S)—N-(8-Bromo-5-methyl-4-oxo-2,3,4,5-tetrahydropyrido[3,2-b][1,4]oxazepin-3-yl)-4-phenoxypicolinamide] the RIP1K inhibitory activity [3] was “exhibiting RIP1K inhibitory activity”.

In the case of `CN1C(=O)[C@@H](NC(=O)c2cc(Oc3cccc(F)c3)ccn2)COc2ccc(C#CC(C)(C)O)nc21` [Compound I-21, (S)-4-(3-fluorophenoxy)-N-(7-(3-hydroxy-3-methylbut-1-yn-1-yl)-5-methyl-4-oxo-2,3,4,5-tetrahydropyrido[3,2-b][1,4]oxazepin-3-yl)picolinamide], the fraction unbound [1] was 0.0219.

Work on `CN1C(=O)[C@@H](NC(=O)c2cc(Oc3ccccc3)ccn2)COc2ccc(C#CC(O)C(F)(F)F)nc21` (stereo partly drawn) [Compound I-33, N-((3S)-5-methyl-4-oxo-7-(4,4,4-trifluoro-3-hydroxybut-1-yn-1-yl)-2,3,4,5-tetrahydropyrido[3,2-b][1,4]oxazepin-3-yl)-4-phenoxypicolinamide] yielded a fraction unbound [1] of 0.0057.

Compound `CN1C(=O)[C@@H](NC(=O)c2cc(Oc3ccccc3)ccn2)COc2ccc(C#CC(C)(C)O)nc21` [Compound I-18, (S)—N-(7-(3-hydroxy-3-methylbut-1-yn-1-yl)-5-methyl-4-oxo-2,3,4,5-tetrahydropyrido[3,2b][1,4]oxazepin-3-yl)-4-phenoxypicolinamide] has a fraction unbound [1] of 0.027.

For `CN1C(=O)[C@@H](NC(=O)c2cc(Oc3ccccc3)ccn2)COc2ccc(C#CC(C)(N)C(F)(F)F)nc21` (stereo partly drawn) [Compound I-46, N-((3S)-7-(3-Amino-4,4,4-trifluoro-3-methylbut-1-yn-1-yl)-5-methyl-4-oxo-2,3,4,5-tetrahydropyrido[3,2-b][1,4]oxazepin-3-yl)-4-phenoxypicolinamide], the fraction unbound [1] was 0.0089.
